Experimental data reported in ChEMBL document CHEMBL1201862, “PubChem BioAssay data set” (2004).
Active and inactive are the calls of the source.

Assays:
[1] = target: Paired box protein Pax-8 (Homo sapiens, UniProt Q06710); test: inhibitors of PAX8-driven TPO luciferase reporter, dose response, RMG-I cells, cherry-pick (AID 687027); format: functional, cell-based;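 further: luciferase reporter driven by Pax8 target thyroperoxidase promoter measured by SteadyGlo luminescence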
[2] = target: T1, Fatty acid synthase (Homo sapiens, UniProt P49327); test: FAS thioesterase domain inhibitors, dose response, biochemical, endpoint fluorescence intensity, uHTS hits (AID 624327); format: functional;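 further: fluorescence from hydrolysis of an O-methyl fluorescein acyl ester substrate by the enzyme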
T1 sequence (P49327 whole entry, the tested form may be a part): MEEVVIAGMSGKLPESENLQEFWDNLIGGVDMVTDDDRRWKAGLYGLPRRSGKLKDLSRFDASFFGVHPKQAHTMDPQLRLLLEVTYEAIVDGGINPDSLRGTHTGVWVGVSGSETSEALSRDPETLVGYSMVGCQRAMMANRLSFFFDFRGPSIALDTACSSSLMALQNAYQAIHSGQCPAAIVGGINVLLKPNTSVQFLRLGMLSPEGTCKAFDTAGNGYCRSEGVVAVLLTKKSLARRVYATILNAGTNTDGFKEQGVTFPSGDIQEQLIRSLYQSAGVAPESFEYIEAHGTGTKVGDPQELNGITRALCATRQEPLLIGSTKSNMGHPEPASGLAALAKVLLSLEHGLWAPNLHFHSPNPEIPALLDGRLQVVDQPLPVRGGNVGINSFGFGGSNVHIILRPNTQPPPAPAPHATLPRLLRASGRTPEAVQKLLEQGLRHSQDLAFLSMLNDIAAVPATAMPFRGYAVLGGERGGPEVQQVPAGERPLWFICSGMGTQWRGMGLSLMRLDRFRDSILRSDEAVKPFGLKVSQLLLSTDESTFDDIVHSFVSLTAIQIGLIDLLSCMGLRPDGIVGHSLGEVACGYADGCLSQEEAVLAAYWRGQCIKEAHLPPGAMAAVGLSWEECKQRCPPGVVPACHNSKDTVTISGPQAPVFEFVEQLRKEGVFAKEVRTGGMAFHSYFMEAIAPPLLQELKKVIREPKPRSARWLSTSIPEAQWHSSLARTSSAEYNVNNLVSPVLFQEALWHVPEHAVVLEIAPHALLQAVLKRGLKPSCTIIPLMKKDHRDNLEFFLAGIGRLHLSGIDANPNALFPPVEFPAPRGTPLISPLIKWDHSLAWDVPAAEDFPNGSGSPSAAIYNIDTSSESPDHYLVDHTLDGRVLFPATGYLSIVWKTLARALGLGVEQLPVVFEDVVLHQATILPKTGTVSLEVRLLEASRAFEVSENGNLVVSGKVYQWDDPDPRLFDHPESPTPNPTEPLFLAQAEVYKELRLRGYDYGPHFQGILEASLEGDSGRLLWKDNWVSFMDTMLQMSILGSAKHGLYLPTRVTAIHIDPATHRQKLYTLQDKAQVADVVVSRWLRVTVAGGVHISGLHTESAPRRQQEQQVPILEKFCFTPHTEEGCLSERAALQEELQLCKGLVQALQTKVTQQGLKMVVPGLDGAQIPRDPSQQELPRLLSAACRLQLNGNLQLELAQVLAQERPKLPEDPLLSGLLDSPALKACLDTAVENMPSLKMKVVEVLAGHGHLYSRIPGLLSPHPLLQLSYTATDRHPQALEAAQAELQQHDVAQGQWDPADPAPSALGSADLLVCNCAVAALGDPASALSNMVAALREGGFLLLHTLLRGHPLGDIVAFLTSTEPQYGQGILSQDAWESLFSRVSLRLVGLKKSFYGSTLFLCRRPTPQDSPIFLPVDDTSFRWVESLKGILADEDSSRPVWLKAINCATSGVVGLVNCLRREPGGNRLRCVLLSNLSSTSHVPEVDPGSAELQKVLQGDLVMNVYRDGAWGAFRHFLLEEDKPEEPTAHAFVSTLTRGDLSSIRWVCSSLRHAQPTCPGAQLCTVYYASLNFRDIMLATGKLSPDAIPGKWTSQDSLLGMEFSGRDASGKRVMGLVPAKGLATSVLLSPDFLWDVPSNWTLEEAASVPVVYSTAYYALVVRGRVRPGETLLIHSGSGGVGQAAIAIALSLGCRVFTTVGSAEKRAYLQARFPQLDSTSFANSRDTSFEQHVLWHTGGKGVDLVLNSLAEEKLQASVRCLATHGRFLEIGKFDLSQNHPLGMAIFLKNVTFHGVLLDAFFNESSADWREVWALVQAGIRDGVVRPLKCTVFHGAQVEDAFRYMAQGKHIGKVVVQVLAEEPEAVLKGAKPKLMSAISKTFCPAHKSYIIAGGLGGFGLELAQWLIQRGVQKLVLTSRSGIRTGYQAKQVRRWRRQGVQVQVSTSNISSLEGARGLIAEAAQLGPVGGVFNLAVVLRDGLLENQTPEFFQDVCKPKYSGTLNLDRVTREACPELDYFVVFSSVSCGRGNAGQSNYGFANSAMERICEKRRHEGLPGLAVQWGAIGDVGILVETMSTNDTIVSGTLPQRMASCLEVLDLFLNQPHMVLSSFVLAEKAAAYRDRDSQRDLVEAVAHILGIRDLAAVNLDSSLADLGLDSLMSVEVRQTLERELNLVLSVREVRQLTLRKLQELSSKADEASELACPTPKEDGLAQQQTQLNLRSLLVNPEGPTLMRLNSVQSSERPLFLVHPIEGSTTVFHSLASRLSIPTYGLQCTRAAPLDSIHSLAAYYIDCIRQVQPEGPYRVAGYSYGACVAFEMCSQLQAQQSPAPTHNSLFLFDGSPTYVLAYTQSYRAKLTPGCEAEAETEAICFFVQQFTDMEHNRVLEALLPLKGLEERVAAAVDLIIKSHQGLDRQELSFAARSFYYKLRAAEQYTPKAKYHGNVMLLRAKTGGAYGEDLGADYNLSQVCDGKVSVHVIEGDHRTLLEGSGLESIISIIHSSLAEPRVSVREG

[3] = target: T1, Fatty acid synthase; test: FAS thioesterase domain inhibitors, dose response, biochemical, kinetic fluorescence intensity (AID 624326); format: functional;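 further: rate of fluorescence rise from hydrolysis of a fluorogenic O-methyl fluorescein ester substrate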
[4] = cells; format: functional
[5] = target: T2, Polyadenylate-binding protein 1 (Homo sapiens, UniProt P11940); test: PABP1 MLLE–PAM2 interaction inhibitors, dose response, miRNA deadenylation inhibitor project, biochemical, fluorescence polarization, Cy5-PAM2 peptide, secondary (AID 602260); format: functional; settings: read-out: IC50_Mean
T2 sequence (P11940 whole entry): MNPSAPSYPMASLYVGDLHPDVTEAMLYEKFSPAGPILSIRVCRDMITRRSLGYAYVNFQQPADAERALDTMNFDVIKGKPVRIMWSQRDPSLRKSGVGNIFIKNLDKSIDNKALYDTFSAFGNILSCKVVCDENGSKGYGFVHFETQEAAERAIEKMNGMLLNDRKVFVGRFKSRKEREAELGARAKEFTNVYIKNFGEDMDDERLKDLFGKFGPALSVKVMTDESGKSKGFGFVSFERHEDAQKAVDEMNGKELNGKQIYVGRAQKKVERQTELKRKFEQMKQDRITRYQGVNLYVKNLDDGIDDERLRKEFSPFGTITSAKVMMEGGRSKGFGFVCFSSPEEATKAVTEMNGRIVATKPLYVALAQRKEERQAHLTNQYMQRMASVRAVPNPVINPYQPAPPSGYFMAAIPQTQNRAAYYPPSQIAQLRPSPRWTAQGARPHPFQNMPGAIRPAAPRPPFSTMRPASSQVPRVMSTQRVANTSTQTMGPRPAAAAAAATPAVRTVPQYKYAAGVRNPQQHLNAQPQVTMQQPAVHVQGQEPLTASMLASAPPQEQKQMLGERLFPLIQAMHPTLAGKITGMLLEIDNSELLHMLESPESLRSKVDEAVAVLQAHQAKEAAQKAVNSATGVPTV

[6] = target: T2, Polyadenylate-binding protein 1; test: PABP1 MLLE–PAM2 binding inhibitor potency, dose response, biochemical, fluorescence polarization, FITC-PAM2 peptide (AID 602259); format: functional; settings: read-out: IC50_Mean
[7] = target: FAD-linked sulfhydryl oxidase ALR (Homo sapiens, UniProt P55789); test: inhibitors of human ALR sulfhydryl oxidase, dose response, biochemical, H2O2 detection, luminescence, cherry-pick (AID 493248)
Sequence of FAD-linked sulfhydryl oxidase ALR (P55789 whole entry): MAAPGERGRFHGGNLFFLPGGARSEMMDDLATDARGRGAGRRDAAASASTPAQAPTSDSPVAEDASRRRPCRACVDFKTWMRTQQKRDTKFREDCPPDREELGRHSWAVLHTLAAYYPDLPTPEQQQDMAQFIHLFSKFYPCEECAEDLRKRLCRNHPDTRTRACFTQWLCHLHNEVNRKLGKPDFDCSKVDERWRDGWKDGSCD

[8] = system: INS1; test: beta cell apoptosis inhibitors, cytokine rescue, dose response, luminescence, retest (AID 449756); format: functional, cell-based; settings: Rattus norvegicus;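 further: cell death triggered by IL-1 beta plus TNF-alpha plus IFN-gamma mixture; protective hits raise ATP signal compared with cytokine alone wells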
[9] = cytotoxicity toward NIH3T3 fibroblasts, dose response, counter-screen, cell-based, ATP luminescence, mouse fibroblasts (AID 2010); format: functional;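 further: cells exposed to compound for about 90 hours before reading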
[10] = inhibitors of intracellular T. cruzi replication, confirmation, NIH3T3 host cells, beta-gal luminescence (AID 2044); format: functional, cell-based;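 further: intracellular parasites grown in NIH/3T3 mouse fibroblasts as host cells; luminescent beta-galactosidase reporter signal from transgenic T. cruzi replicating inside host cells; inhibitors lower the luminescence signal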
[11] = target: T3, Calpain-2 catalytic subunit (Sus scrofa, UniProt P43367); test: pig calpain II inhibitor potency, dose response, biochemical, fluorogenic peptide substrate (AID 1420); format: functional
T3 sequence (P43367 whole entry): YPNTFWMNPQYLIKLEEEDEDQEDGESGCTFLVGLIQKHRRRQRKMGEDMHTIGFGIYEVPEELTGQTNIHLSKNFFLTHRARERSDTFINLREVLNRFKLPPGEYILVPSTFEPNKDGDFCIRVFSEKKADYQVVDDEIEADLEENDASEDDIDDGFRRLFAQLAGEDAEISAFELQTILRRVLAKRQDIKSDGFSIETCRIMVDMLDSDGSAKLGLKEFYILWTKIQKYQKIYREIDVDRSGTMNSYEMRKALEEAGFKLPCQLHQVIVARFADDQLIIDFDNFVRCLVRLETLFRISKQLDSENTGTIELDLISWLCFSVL

Sequence of Paired box protein Pax-8 (Q06710 whole entry, the tested form may be a part): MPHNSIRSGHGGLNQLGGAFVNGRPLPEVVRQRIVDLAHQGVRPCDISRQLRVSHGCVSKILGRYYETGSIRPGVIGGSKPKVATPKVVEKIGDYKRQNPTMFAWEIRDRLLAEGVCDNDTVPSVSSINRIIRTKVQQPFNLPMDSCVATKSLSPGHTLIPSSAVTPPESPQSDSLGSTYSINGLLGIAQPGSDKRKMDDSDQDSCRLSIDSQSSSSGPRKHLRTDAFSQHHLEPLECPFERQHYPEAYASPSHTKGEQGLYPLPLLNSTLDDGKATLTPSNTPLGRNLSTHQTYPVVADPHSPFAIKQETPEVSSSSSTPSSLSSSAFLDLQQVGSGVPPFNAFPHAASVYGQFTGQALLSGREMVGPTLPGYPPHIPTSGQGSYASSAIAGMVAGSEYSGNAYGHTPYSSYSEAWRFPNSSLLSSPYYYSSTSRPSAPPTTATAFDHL

C[C@@H]1CCCCO[C@@H](CN(C)C(=O)C2CCCCC2)[C@H](C)CN([C@H](C)CO)C(=O)c2cc(NC(=O)Nc3ccc(F)cc3)ccc2O1
AC50 [1]: 8.22 µM (active)

COc1ccc([C@H]2CC(=O)C=C(c3ccc(C)c([N+](=O)[O-])c3)C2)cc1
IC50 [2]: 2.65 µM (active) | IC50 [3]: 2.14 µM (active)

C[C@H](CO)N1C[C@H](C)[C@H](CN(C)Cc2ccc(Cl)c(Cl)c2)OCCCC[C@H](C)Oc2ccc(NC(=O)Nc3ccccc3)cc2C1=O
AC50 [1]: 11.9 µM (active)

O=C(OCc1nnc(-c2ccccc2)o1)c1cc([N+](=O)[O-])ccc1Cl
IC50 [4]: 11.8 µM (active)

N#Cc1cccc(-c2ccc3c(c2)[C@@H]2[C@@H](CCN2S(=O)(=O)c2ccc(F)cc2)[C@@H](CO)N3)c1
AC50 [1]: 6.61 µM (active)

CCN(CC(=O)Nc1c(F)cccc1F)C(=O)Cc1ccc2c(c1)CCC2
IC50 [5]: > 66 µM (inactive) | IC50 [6]: > 66 µM (inactive)

COc1ccccc1NC(=O)CN1CCSc2ccccc21
AC50 [7]: 1.32 µM (active)

CCN(CC)c1ccc(NS(=O)(=O)c2cn(C)c(=O)n(C)c2=O)c(C)c1
AC50 [7]: 0.789 µM (active)

CN1C[C@H](C(=O)N[C@]2(C)O[C@@]3(O)[C@@H]4CCCN4C(=O)[C@H](Cc4ccccc4)N3C2=O)CC2c3cccc4[nH]cc(c34)C[C@H]21 (some centres undefined)
IC50 [2]: 9.27 µM (active) | IC50 [3]: 15.6 µM (active)

CCCc1nnc(NC(=O)c2cc3ccccc3oc2=O)s1
IC50 [4]: 2.83 µM (active)

CC(=O)c1cccc(OC(=O)Oc2cccc(C(C)=O)c2)c1
IC50 [2]: 10.5 µM (active) | IC50 [3]: 6.11 µM (active)

CCCOc1ccc(Cc2c(Cl)nc(SC)nc2NC)cc1
AC50 [8]: 3.53 µM (active)

CC(=O)Nc1ccc(NC(=O)c2cc([N+](=O)[O-])cc([N+](=O)[O-])c2)cc1
EC50 [9]: > 60 µM (not active) | EC50 [10]: 1.63 µM (active) | IC50 [4]: 13.9 µM (active)

CNC(=S)NN=C(C)c1ccc(OC)cc1O
IC50 [5]: > 66 µM (inactive) | IC50 [6]: > 66 µM (inactive)

COc1ccccc1Nc1nc(Cl)c(C=O)s1
IC50 [11]: > 50 µM (not active)

C[C@H]1CCCCO[C@@H](CN(C)S(=O)(=O)c2cccs2)[C@@H](C)CN([C@@H](C)CO)C(=O)c2cc(NC(=O)NC3CCCCC3)ccc2O1
AC50 [1]: 4.79 µM (active)

O=C1CCC(=O)N1c1ccc(CSc2nc3ccccc3[nH]2)cc1
AC50 [7]: 1.22 µM (active)
